Assay results reported in PMC7738508, “A therapeutic combination of two small molecule toxin inhibitors provides broad preclinical efficacy against viper snakebite” (Nature Communications, 2020).
“And” between values parts separate entries of the source, which are not always exact repeats. Identical values can stand only once.

Key:
[1] = system: procoagulant activity of Echis carinatus venom (citrated bovine plasma); assay: plasma clotting assay; assay type: biochemical; design: key: max of first derivative of A595 clot curve (max clotting velocity); conditions: Echis carinatus venom 100 ng, independent repeats
Description: (§1) We used a previously developed plasma clotting assay[35] to measure venom-induced coagulation. Briefly, 100 ng of each venom was incubated at 37 °C for 30 min in the presence or absence of inhibitors (150 µM to 150 nM final concentrations). The final reaction consisted of 10 µl venom ± inhibitors in PBS, 20 µl 20 mM CaCl2, and 20 µl citrated bovine plasma (VWR). The samples were pipetted in triplicate into 384-well plates, and absorbance monitored at 595 nm for 2 h at 25 °C on an Omega FLUOstar instrument. We calculated the maximum clotting velocity of each of the curves as per clot waveform analysis, by calculating the maximum of the first derivative. The means of at least three independent experimental runs for each condition were plotted at each inhibitor concentration with SEMs.

[2] = system: coagulopathic activity of Daboia russelii venom (citrated bovine plasma); assay: plasma clotting assay; assay type: biochemical; design: key to maximum clotting velocity: max of first derivative of A595 clot curve (max clotting velocity); conditions: for maximum clotting velocity: Daboia russelii venom 100 ng, independent repeats
Description: as §1

[3] = system: procoagulant activity of Bothrops asper venom (citrated bovine plasma); assay: plasma clotting assay; assay type: biochemical; conditions: Bothrops asper venom 100 ng, independent repeats
Description: as §1

[4] = system: procoagulant activity of Echis ocellatus venom (citrated bovine plasma); assay: plasma clotting assay; assay type: biochemical; conditions: Echis ocellatus venom 100 ng, independent repeats
Description: as §1

[5] = system: pro- and anticoagulant fractions of D. russelii venom; assay: nanofractionation with plasma coagulation assay; assay type: biochemical, Daboia russelii; conditions: nanofractionated D. russelii venom; inhibitor 0.0064 to 20 µM
Description: Fifty microlitres of venom solution (D. russelii; 1 mg/ml) was injected into a Shimadzu LC-2010 system with nanofractionation in parallel. Separation was performed on a Waters XBridge reversed-phase C18 column (250 × 4.6 mm^2 column with 3.5 μm pore-size) at 30 °C. The total flow rate of the mobile phase solution was 0.5 ml/min with eluent A (98% H2O, 2% acetonitrile [ACN], 0.1% formic acid [FA]) and eluent B (98% ACN, 2% H2O, 0.1% FA). Liquid chromatography gradients consisted of a linear increase of mobile phase B from 0 to 50% in 20 min, followed by a linear increase to 90% B in 4 min, then isocratic at 90% B for 5 min, after which the percentage of mobile phase B was decreased from 90 to 0% in 1 min, followed by 10 min at 0% B to re-equilibrate. The effluent was split in a 1:9 ratio of which the 10% fraction was sent to a Shimadzu SPD-M20A prominence diode array detector and the 90% fraction was directed to a nanofractionation collector which dispensed the fractions into transparent 384-well plates (F-bottom, rounded square well, polystyrene, without lid, clear, non-sterile; Greiner Bio One, Alphen aan den Rijn, The Netherlands) at a resolution of 6 s/well. The collector used was either a commercially available FractioMate^TM nanofractionator (SPARK-Holland & VU, Netherlands, Emmen & Amsterdam) controlled by FractioMator software v1.0 (Spark-Holland, The Netherlands, Emmen) or a modified Gilson 235P autosampler controlled by in-house written software Ariadne v1.8 (VU Amsterdam). The well plates with venom fractions were then dried overnight in a Christ Rotational Vacuum Concentrator (RVC 2 − 33 CD plus, Zalm en Kipp, Breukelen, The Netherlands) equipped with a cooling trap, and maintained at −80 °C during operation. The freeze-dried plates were then stored at −80 °C prior to bioassaying.
The final assay concentrations of the inhibitors tested in the assay were 20, 4, 0.8, 0.16, 0.032, and 0.0064 µM. The plates were then incubated for 30 min at room temperature, and during this time bovine plasma (Sterile Filtered, Biowest, Nuaille, France) was defrosted in a water bath and centrifuged for 4 min at 805 × g prior to use. […] The plate was then read immediately for absorbance kinetically for 100 min at 595 nm at 25 °C using a Varioskan Flash Multimode Reader (Thermo Fisher Scientific, Ermelo, The Netherlands). The obtained results were normalized by dividing the slope measured in each well by the median of all slope values across the plate, and the processed coagulation chromatograms were plotted to visualize very fast coagulation, medium increased coagulation and anticoagulation, as previously described.

With CNC(=O)[C@@H](NC(=O)[C@H](CC(C)C)[C@H](O)C(=O)NO)C(C)(C)C [marimastat] as the compound, how does the maximum clotting velocity ([1]; inhibitor 15 µM) read?
The maximum clotting velocity was 0.03177 and 0.03235.

What about the maximum clotting velocity ([1]; inhibitor 150 µM) of the same compound?
The maximum clotting velocity was 0.03353 and 0.03265 and 0.02823.

What about the “effect on clotting after complete neutralization of SVMP activity” value ([2]; D. russelii venom, high doses) of the same compound?
Its value is “revealed clear venom anticoagulant effects”.

And the maximum clotting velocity ([2]; inhibitor 15 µM)?
Its maximum clotting velocity is 0.01941 and 0.01206 and 0.01103.

What about the maximum clotting velocity ([2]; inhibitor 150 µM) of the same compound?
The maximum clotting velocity was 0.005735 and 0.003235.

What about the maximum clotting velocity ([3]; inhibitor 15 µM) of the same compound?
Its maximum clotting velocity is 0.02338 and 0.02609 and 0.02203.

And the maximum clotting velocity ([3]; inhibitor 150 µM)?
The maximum clotting velocity was 0.02696 and 0.02551 and 0.02522.

And the maximum clotting velocity ([4]; inhibitor 15 µM)?
Its maximum clotting velocity is 0.0225 and 0.02559 and 0.02899.

What about the maximum clotting velocity ([4]; inhibitor 150 µM) of the same compound?
Its maximum clotting velocity is 0.02088 and 0.02471 and 0.02435.

What about the “inhibition of anticoagulant venom fractions” value [5] of the same compound?
Its value is “not neutralized”.

What about the “inhibition of procoagulant venom fractions” value [5] of the same compound?
Its value is “effectively inhibited in a dose-dependent manner”.
